{
  "source": "patent US10870832B2",
  "about": "“Use of small molecules to enhance MAFA expression in pancreatic endocrine cells” (Janssen Biotech, Inc., priority 2014, dated 2020)",
  "key": {"MAFA expression": {"test_system": "MAFA expression", "assay": "Small molecule screen at Stage 6 or 7, real-time PCR (Example 2)", "assay_type": "cell-based, human", "settings": "added at Stage 7, 1 μM, H1-derived cells at air-liquid interface", "protocol": "Cells of the human embryonic stem cell line H1 (WA01) at passage 42 were seeded as single cells at 1×10^5 cells/cm^2 on MATRIGEL™ (1:30 dilution)-coated dishes in a media comprising of DMEM-F12, GlutaMAX™ (1:100 dilution), 0.25 mM ascorbic acid, 100 ng/ml of FGF2 (R & D systems, MN), 1 ng/ml of TGF-β, ITS-X (1:100 dilution), 2% FAF-BSA, and 20 ng/ml of IGF-1, supplemented with 10 μM of Y-27632. Forty-eight hours post-seeding, the cultures were washed in incomplete PBS (phosphate buffered saline without Mg or Ca) followed by incubation with 1× TrypLE™ Express Enzyme (Life Science; Catalog No. 14190) for 3 to 5 minutes at 37° C. The released cells were rinsed with DMEM-F12 and spun at 1000 rpm for 5 minutes. The resulting cell pellet was resuspended in DMEM-F12 supplemented with 10 μM Y-27632, 1× GlutaMAX™, 0.25 mM ascorbic acid, 100 ng/ml FGF2, 1 ng/ml TGF-β, ITS-X at a 1:100 dilution, 2% FAF-BSA and 20 ng/ml of IGF-1 and the single cell suspension was seeded at approximately 1.3 to 1.5×10^5 cells/cm^2. The cultures were fed every day with medium and differentiation, according to the following protocol, was initiated 48 hours following seeding resulting in an about 90% starting confluency. […]\nAt Stages 6 or 7, various small molecules were added and their effect was evaluated by real-time PCR."}, "CaMKIIIβ(h)": {"test_system": "CaMKIIIβ(h)", "assay": "Kinase profiling of R428", "assay_type": "biochemical, human", "settings": "100 μM ATP, lower number = more robust inhibition", "protocol": "The efficiency of the AXL inhibitor R428 for targeting different kinases was assessed by Kinase Profiling Services using 100 μM ATP concentration (EMD Millipore). R428 was tested at 1 and 10 μM. Table IV lists the kinases profiled along with the efficiency in targeting the kinases with a lower number indicating a more robust inhibition of a particular kinase."}, "UCN3 expression": {"test_system": "UCN3 expression", "assay": "Stage 7 treatment, real-time PCR of UCN3 (Example 6)", "assay_type": "cell-based, human", "settings": "Stage 7, day 7, 2 μM in Stage 7 medium, H1-derived cells, mRNA", "protocol": "(§1) Cells of the human embryonic stem cell line H1 (WA01) were seeded as single cells at 1×10^5 cells/cm^2 on MATRIGEL™ (1:30 dilution) coated dishes in E8 media. At about 70 to 80% confluency, the cultures were washed in 1× incomplete DPBS followed by incubation with 1× TrypLET™ Express Enzyme for 3 to 5 minutes at 37° C. The released cells were rinsed with E8 and spun at 1000 rpm for 5 minutes. The resulting cell pellet was resuspended in E8 supplemented with 10 μM Y-27632 and the single cell suspension was seeded at approximately 1.3 to 1.5×10^5 cells/cm^2. The cultures were fed every day with E8 medium and differentiation, according to the following protocol, was initiated 48 hrs. following seeding resulting in an about 90% starting confluency.\n(§2) Stage 6 cells were cultured for seven days in BLAR medium supplemented with a 1:100 dilution of ITS-X; 20 mM glucose (final); 1.5 g/L sodium bicarbonate; 2% FAF-BSA; 10 μg/ml of heparin, 10 μM ZnSO4, 1 μM T3 as 3,3′, 5-triiodo-L-thyronine sodium salt, 10 μM ALK5 inhibitor II, 1 mM N-acetyl cysteine. […]\n(§3) At Stage 7, day 7, mRNA was collected and expression of MAFA, UCN3, PDX1, NKX6.1, insulin and G6PC2 evaluated as compared to undifferentiated human stem cells. […]"}, "G6PC2 expression": {"test_system": "G6PC2 expression", "assay": "Stage 7 treatment, real-time PCR of G6PC2 (Example 6)", "assay_type": "cell-based, human", "settings": "Stage 7, day 7, 2 μM in Stage 7 medium, H1-derived cells, mRNA", "protocol": "as §1, §2, §3"}, "IGF-1R(h)": {"target": "IGF-1R(h) (Homo sapiens, UniProt P08069)", "sequence (P08069 31-1367)": "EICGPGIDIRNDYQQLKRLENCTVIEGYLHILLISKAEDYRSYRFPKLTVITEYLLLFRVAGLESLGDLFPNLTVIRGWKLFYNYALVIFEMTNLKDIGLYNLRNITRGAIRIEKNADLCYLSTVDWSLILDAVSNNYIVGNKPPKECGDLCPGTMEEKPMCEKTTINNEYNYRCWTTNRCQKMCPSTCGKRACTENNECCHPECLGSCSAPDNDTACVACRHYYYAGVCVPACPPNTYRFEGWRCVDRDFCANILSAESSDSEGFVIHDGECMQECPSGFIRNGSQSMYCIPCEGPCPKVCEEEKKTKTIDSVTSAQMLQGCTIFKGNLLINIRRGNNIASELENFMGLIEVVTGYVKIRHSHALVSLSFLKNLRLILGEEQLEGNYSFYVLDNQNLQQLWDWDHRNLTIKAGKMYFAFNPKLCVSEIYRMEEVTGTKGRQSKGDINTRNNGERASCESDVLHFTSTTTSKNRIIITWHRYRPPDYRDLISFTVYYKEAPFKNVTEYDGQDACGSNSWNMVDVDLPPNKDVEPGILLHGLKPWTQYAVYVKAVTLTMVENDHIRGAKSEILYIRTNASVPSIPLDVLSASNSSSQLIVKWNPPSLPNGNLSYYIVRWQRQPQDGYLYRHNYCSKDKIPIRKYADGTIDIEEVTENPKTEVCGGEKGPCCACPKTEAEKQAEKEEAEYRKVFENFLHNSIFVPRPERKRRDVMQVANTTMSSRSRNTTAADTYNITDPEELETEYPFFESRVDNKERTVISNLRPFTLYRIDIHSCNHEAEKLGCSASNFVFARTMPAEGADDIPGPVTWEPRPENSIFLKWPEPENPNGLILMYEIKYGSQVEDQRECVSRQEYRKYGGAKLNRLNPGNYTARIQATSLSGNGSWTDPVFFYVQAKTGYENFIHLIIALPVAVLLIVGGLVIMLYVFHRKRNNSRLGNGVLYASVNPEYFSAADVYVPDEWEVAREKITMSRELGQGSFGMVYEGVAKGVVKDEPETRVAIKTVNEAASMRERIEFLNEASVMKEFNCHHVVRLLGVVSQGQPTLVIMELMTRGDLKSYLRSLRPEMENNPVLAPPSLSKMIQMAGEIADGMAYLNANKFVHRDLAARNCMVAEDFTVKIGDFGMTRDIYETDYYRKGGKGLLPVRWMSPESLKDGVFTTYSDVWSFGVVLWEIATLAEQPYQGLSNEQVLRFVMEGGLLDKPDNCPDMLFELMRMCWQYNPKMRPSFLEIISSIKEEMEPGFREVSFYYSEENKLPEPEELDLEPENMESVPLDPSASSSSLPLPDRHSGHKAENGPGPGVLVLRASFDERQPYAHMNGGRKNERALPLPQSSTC", "assay": "Kinase profiling of R428", "assay_type": "biochemical", "settings": "100 μM ATP, lower number = more robust inhibition", "procedure,_shortened": "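Kinases were profiled by an outsourced service at 100 μM ATP, and R428 was added at 1 or 10 μM. Activity relative to uninhibited kinase was then recorded.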"}},
  "data": [
    {"compound": "Nc1nc(Nc2ccc3c(c2)CC[C@@H](N2CCCC2)CC3)nn1-c1cc2c(nn1)-c1ccccc1CCC2", "note": "[R428, 1H-1,2,4-Triazole-3,5-diamine, 1-(6,7-dihydro-5H-benzo[6,7]cyclohepta[1,2-c]pyridazin-3-yl) N3-[(7S)-6,7,8,9-tetrahydro-7-(1-pyrrolidinyl)-5H-benzocyclohepten-2-yl]-]", "values": [
      {"measurement": "expression of MAFA as compared to untreated cultures", "setting": "MAFA expression", "result": "significantly upregulated"},
      {"measurement": "efficiency in targeting CaMKIIIβ(h)", "setting": "CaMKIIIβ(h); R428 @ 1 μM", "result": 76},
      {"measurement": "efficiency in targeting CaMKIIIβ(h)", "setting": "CaMKIIIβ(h); R428 @ 10 μM", "result": 5},
      {"measurement": "UCN3 expression", "setting": "UCN3 expression", "result": "reduces other beta cell maturation markers"},
      {"measurement": "G6PC2 expression", "setting": "G6PC2 expression", "result": "reduces other beta cell maturation markers"},
      {"measurement": "efficiency in targeting IGF-1R(h)", "setting": "IGF-1R(h); R428 @ 1 μM", "result": 93},
      {"measurement": "efficiency in targeting IGF-1R(h)", "setting": "IGF-1R(h); R428 @ 10 μM", "result": 58}
    ]}
  ]
}
